Assay results: patent US11541019B2, “Compositions for use in the treatment of diabetes” (University of Ulster, priority 2015, dated 2023)
Read-outs that look alike come from different tables or passages of the source. Blank lines part the entries; values can stand above or below the compound they belong to.

What was measured:
[1] = tested on: BRIN-BD11 cells; experiment: Acute insulin secretion from clonal BRIN-BD11 cells (radioimmunoassay); type: cell-based; conditions: for concentrations that enhanced insulin release: tested 10^−12-10^−4 mol/L; for EC50: Rattus norvegicus, BRIN-BD11, 20 min, 20 min incubation, read-out: EC50 of enhanced insulin release
Procedure: (§1) Insulin-secreting BRIN-BD11 cells were cultured with RPMI-1640 media (11.1 mM glucose) containing antibiotics (100 U/ml penicillin and 0.1 mg/ml streptomycin) and 10% foetal calf serum at 37° C. in an atmosphere of 95% air and 5% carbon dioxide. For acute insulin secretion studies, cells were detached using trypsin/EDTA and incubated overnight in 24 well plates with 150,000 cells per well. Cells were then pre-incubated for 40 minutes at 1.1 mmol/l glucose in Krebs buffer (comprising 4.7 mmol/l KCL, 115 mmol/l NaCl, 1.28 mmol/CaCl2, 10 mmol/l NaHCO3, 5 g/l BSA, 1.2 mmol/l KH2PO4, 1.2 mmol/l MgSO47H2O pH 7.4). Test incubations were then performed at 37° C. for 20 minutes. DIM, indole-3-carbinol, embelin, [6]-gingerol, and [6]-shogaol at 10^−12-10^−4 mol/L were tested at both 5.6 mmol/L and 16.7 mmol/L glucose, as indicated in the accompanying drawings. Supernatants were removed, evaluated for lactate dehydrogenase (LDH) release as an indicator of cytotoxicity (as per manufacturer's protocol) or frozen at −20° C. until determination of insulin by radioimmunoassay.

[2] = tested on: BRIN-BD11 cells; experiment: LDH release from BRIN-BD11 cells as indicator of cytotoxicity; type: cell-based
Procedure: as §1

[3] = tested on: NIH Swiss mice; experiment: Acute effects on plasma glucose and insulin after oral glucose load; type: in vivo; conditions: for circulating (plasma) glucose after glucose load / plasma insulin (insulin release) after glucose load: high fat fed mice, oral 50 μmol/kg with glucose 18 mmol/kg
Procedure: Adult male (20-22 week) NIH Swiss mice (Harlan UK Ltd) were individually housed in an air-conditioned room at 22±2° C. with 12 hour light: 12 hour darkness cycles. […] Non-fasted NIH Swiss mice (n=6) received an oral injection of glucose alone (18 mmol/kg body weight) or in combination with compositions of the present invention (50 μmol/kg body weight). Blood samples were obtained from the cut tip from tail vein of conscious mice and centrifuged at 13,000 rpm for 3 minutes at 4° C. Plasma glucose was measured by an automated glucose oxidase procedure using a Beckman glucose analyser and insulin determined by radioimmunoassay. All animal experiments were carried out in accordance with the UK Animal (Scientific Procedures) Act 1986.

[4] = tested on: BRIN-BD11 cells; experiment: Intracellular Ca2+ in BRIN-BD11 cells (Flex calcium assay kit); type: cell-based; conditions: 10^−4 mol/L, 16.7 mM glucose
Procedure: (§2) For intracellular Ca2+ measurement, monolayers of BRIN-BD11 cells were seeded overnight at a density of 80,000 cells per well in a 96-well black walled clear bottom plate. Cells were washed with 100 μl of Krebs buffer and incubated for 1 hour with Flex calcium assay kit reagent at 37° C. GPR84 at 10^−4 mol/L were added at 5.6 mmol/L and 16.7 mmol/L glucose. Fluorometric data were obtained using the FLEX Station scanner and test solutions were transferred using fluid transfer workstation at a wavelength of 525 nm (Molecular Devices). For cAMP determination, BRIN-BD11 cells were seeded in a 96-well plate at a density of 30,000 cells per well. Cells were washed with 300 μl Krebs buffer for 40 min and 150 μl of compositions of the present invention at 10^−10-10^−4 mol/L were tested at […] glucose. After 20 minutes, test solutions were removed and 0.1M HCL (150 μL) was added to lyse the cells. Total cAMP production in the cell supernatants were measured using cAMP enzyme immunoassay kit according to the manufacturer's protocol (Sigma, Poole, UK).

[5] = tested on: BRIN-BD11 cells; experiment: cAMP production in BRIN-BD11 cells (enzyme immunoassay); type: cell-based; conditions: 11.1 mM glucose, 20 min
Procedure: as §2

[6] = tested on: high fat fed diabetic NIH Swiss mice; experiment: Long-term daily oral administration in high fat fed diabetic mice; type: in vivo; conditions: for pancreatic insulin content: HFF model; for plasma insulin following oral glucose / plasma glucose following a glucose load: after long-term daily administration; for plasma glucose following a glucose load: glucose 18 mmol/kg; for increase in circulating GLP-1: at 30 min after oral glucose, long term study; for plasma GLP-1: at the end of the study; for insulin sensitivity: insulin 25 U/kg; for body weight: daily oral for 21 days; for non-fasting plasma insulin: after 21 days; for decrease in plasma glucose, area under the curve: over 21 days; for GLP-1 secretion: over the long term study, after oral glucose
Procedure: […] In order to confirm diabetes, an oral glucose tolerance test (OGTT) was performed. Food intake, fluid intake, body weight, non-fasted plasma glucose and insulin concentrations were monitored every 2- to 4-days as indicated in the accompanying drawings. At the end of the study, glucose tolerance (18 mmol/kg body weight) and insulin sensitivity (25 U/kg body weight) were assessed. Mice were anesthetised by isoflurane and killed by cervical dislocation. Dual energy X-ray absorption (DEXA) scanning was performed after prior calibration and quality control with the aluminium/lucite phantom (0.069 g/cm2, 12.0% fat) using a PIXImus system (software version 1.4x).

[7] = 5.6 mM or 16.7 mM glucose, not separated at the place
[8] = high fat fed mice, daily administration

SMILES: OCc1c[nH]c2ccccc12 [Indole-3-carbinol, 1H-Indol-3-ylmethanol]
concentrations that enhanced insulin release ([1]; 5.6 mM glucose): 10^−7-10^−4 mol/L | concentrations that enhanced insulin release ([1]; 16.7 mM glucose): 10^−6-10^−4 mol/L | EC50 ([1]; 5.6 mM basal glucose): 1500 nM | EC50 ([1]; 16.7 mM stimulatory glucose): 400 nM | cytotoxicity (LDH release) [2, 7]: No cytotoxicity | circulating (plasma) glucose after glucose load [3]: significantly decreased

SMILES: c1ccc2c(Cc3c[nH]c4ccccc34)c[nH]c2c1 [Diindolylmethane, 3,3′-methanediylbis(1H-indole)]
concentrations that enhanced insulin release ([1]; 5.6 mM glucose): 10^−8-10^−4 mol/L | concentrations that enhanced insulin release ([1]; 16.7 mM glucose): 10^−9-10^−4 mol/L | EC50 ([1]; 5.6 mM basal glucose): 130 nM | EC50 ([1]; 16.7 mM stimulatory glucose): 1000 nM | cytotoxicity (LDH release) ([2]; 5.6 mM glucose): No cytotoxicity | cytotoxicity (LDH release) ([2]; 16.7 mM glucose): No cytotoxicity | intracellular Ca2+ concentrations [4]: increased intracellular Ca2+ concentrations | cAMP production / involvement of cAMP pathway [5]: involves the cAMP-dependent pathway | circulating (plasma) glucose after glucose load [3]: decreased circulating glucose | plasma insulin (insulin release) after glucose load [3]: increase in insulin release | pancreatic insulin content ([6]; daily administration): reduced pancreatic insulin content | plasma insulin following oral glucose ([6]; high fat fed mice): decreased plasma insulin | plasma glucose following a glucose load ([6]; high fat fed mice): attenuated | increase in circulating GLP-1 ([6]; high fat fed mice): 61% | plasma GLP-1 ([6]; high fat fed mice): raised | total body fat (DEXA) [6, 8]: decreased body fat | insulin sensitivity [6, 8]: decreased | energy intake ([6]; high fat fed mice, daily oral): decreased energy intake | fluid intake ([6]; high fat fed mice, daily oral): no effect on fluid intake | body weight ([6]; high fat fed mice): decreased body weight after 15 days | non-fasting plasma insulin ([6]; high fat fed mice, daily oral): augmented | non-fasting plasma glucose ([6]; high fat fed mice, daily oral, at 21 days): decrease in plasma glucose | decrease in plasma glucose, area under the curve ([6]; high fat fed mice, daily oral): 18% | GLP-1 secretion ([6]; high fat fed mice): increased GLP-1 secretion

SMILES: CCCCC/C=C/C(=O)CCc1ccc(O)c(OC)c1 [[6]-shogaol, (E)-1-(4-hydroxy-3-methoxyphenyl)dec-4-en-3-one]
intracellular Ca2+ concentrations [4]: increased intracellular Ca2+ concentrations | cAMP production / involvement of cAMP pathway [5]: act through the cAMP pathway

More lines, in order of falling EC50 ([1]; 5.6 mM basal glucose), values ahead:

EC50 ([1]; 5.6 mM basal glucose): 1900 nM | EC50 ([1]; 16.7 mM stimulatory glucose): 2800 nM
SMILES: CCCCC[C@H](O)CC(=O)CCc1ccc(O)c(OC)c1 [[6]-gingerol, (5S)-5-hydroxy-1-(4-hydroxy-3-methoxyphenyl)decan-3-one]
concentrations that enhanced insulin release ([1]; 5.6 mM glucose): 10^−8-10^−4 mol/L | concentrations that enhanced insulin release ([1]; 16.7 mM glucose): 10^−8-10^−4 mol/L | cytotoxicity (LDH release) [2, 7]: No cytotoxicity | plasma glucose after glucose load ([3]; NIH Swiss mice, diet not separated (normal chow and high fat), oral with glucose 18 mmol/kg): significant decrease

EC50 ([1]; 5.6 mM basal glucose): 730 nM | EC50 ([1]; 16.7 mM stimulatory glucose): 210 nM
SMILES: CCCCCCCCCCCC1=C(O)C(=O)C=C(O)C1=O [Embelin, 2,5-dihydroxy-3-undecylcyclohexa-2,5-diene-1,4-dione]
concentrations that enhanced insulin release ([1]; 5.6 mM glucose): 10^−9-10^−4 mol/L | concentrations that enhanced insulin release ([1]; 16.7 mM glucose): 10^−10-10^−4 mol/L | cytotoxicity (LDH release) ([2]; 5.6 mM glucose): No cytotoxicity | cytotoxicity (LDH release) ([2]; 16.7 mM glucose): No cytotoxicity | intracellular Ca2+ concentrations [4]: increased intracellular Ca2+ concentrations | cAMP production / involvement of cAMP pathway [5]: involves the cAMP-dependent pathway | circulating (plasma) glucose after glucose load [3]: decreased circulating glucose | plasma insulin (insulin release) after glucose load [3]: increase in insulin release | pancreatic insulin content ([6]; daily administration): reduced pancreatic insulin content | plasma insulin following oral glucose ([6]; high fat fed mice): decreased plasma insulin | plasma glucose following a glucose load ([6]; high fat fed mice): significantly decreased | increase in circulating GLP-1 ([6]; high fat fed mice): 45% | plasma GLP-1 ([6]; high fat fed mice): raised | low-density lipoprotein (LDL) cholesterol [6, 8]: reduced | total body fat (DEXA) [6, 8]: no change in total body fat | total cholesterol [6, 8]: reduced | insulin sensitivity [6, 8]: decreased | body weight ([6]; high fat fed mice): no effect on body weight | non-fasting plasma glucose ([6]; high fat fed mice, daily oral, after 9 days of treatment): significant decrease in plasma glucose | non-fasting plasma insulin ([6]; high fat fed mice, daily oral): augmented | decrease in plasma glucose, area under the curve ([6]; high fat fed mice, daily oral): 17% | GLP-1 secretion ([6]; high fat fed mice): increased GLP-1 secretion
